Measured values published in patent US20250057913A1, “USE OF SOMATOSTATIN AGONIST IN THE TREATMENT OF SSTR3 EXPRESSING TUMORS” (ITALFARMACO SPA, priority 2021, published 2025).

Columns and labels:
SSTR2 [1] = target: T1, SSTR2 (Homo sapiens, UniProt P30874); assay: SSTR binding affinity (Table 1); set-up: expressed in transfected cells; host or cells: HEK293 co-expressing GIRK2-GFP
Text: (§1) IC50 values are from one representative experiment. Confidence interval from 3 independent experiments (Table 1).

SSTR5 [2] = target: T2, SSTR5 (Homo sapiens, UniProt P35346)
T2 sequence (P35346 whole entry): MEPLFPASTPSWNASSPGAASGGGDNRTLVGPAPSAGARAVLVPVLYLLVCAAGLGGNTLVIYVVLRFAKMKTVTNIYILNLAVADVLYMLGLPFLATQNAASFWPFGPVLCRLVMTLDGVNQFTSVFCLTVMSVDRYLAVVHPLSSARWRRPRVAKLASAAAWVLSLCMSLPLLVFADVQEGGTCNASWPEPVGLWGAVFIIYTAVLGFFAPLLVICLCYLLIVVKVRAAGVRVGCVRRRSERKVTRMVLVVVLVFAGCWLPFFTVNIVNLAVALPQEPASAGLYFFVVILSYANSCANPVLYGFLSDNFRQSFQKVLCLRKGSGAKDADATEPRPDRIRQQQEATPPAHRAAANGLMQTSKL
Text: (§4) Therefore, G protein-signaling mediated by SSTR agonists was studied using a GIRK-based fluorescence membrane potential assay both in HEK293 cells transfected with hSSTR3, and in AtT20 wild-type as well as hSSTR3-transfected cells.

SSTR3 [3] = target: T3, SSTR3 (Homo sapiens, UniProt P32745); assay: GIRK-based fluorescence membrane potential assay, HEK293-GIRK2-GFP-HA-hSST3
T3 sequence (P32745 whole entry): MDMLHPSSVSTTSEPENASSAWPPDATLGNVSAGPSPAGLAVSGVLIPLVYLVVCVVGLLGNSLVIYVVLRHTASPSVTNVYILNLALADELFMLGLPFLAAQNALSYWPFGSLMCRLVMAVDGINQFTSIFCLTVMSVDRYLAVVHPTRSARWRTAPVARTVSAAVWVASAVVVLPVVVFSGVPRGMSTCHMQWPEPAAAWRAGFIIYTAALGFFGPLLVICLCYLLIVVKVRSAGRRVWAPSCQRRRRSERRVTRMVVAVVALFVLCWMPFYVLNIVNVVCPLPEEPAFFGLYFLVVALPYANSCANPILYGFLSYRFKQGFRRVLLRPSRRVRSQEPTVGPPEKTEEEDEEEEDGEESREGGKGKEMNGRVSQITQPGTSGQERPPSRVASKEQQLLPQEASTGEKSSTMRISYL
Text: The concentrations used are indicated. […] Data points represent mean±S.E.M.
as §4

SSTR3 [4] = target: T3, SSTR3; assay: SSTR3 internalization in transfected HEK293 cells (confocal microscopy); format: cell-based; set-up: expressed in transfected cells; settings: HEK293, 1 μM or 10 μM, 30 min
Text: Cells were then fixed, stained with the anti-HA antibody and examined by confocal microscopy. Shown are representative images from one of at least three independent experiments performed in duplicate.
HEK293 cells transfected with human SSTRs, and U20S cells transfected with human GFP-tagged receptors (SSTR2-tGFP, SSTR3-tGFP, SSTR5-tGFP). SST14 and SST28 were included as reference compounds in the first and second experiments, respectively.

SSTR3 [5] = target: T3, SSTR3; assay: SSTR binding affinity (Table 1)
Text: as §1

SSTR1 = SSTR1 (Homo sapiens, UniProt P30872); assay: SSTR binding affinity (Table 1)
Sequence of SSTR1 (P30872 whole entry): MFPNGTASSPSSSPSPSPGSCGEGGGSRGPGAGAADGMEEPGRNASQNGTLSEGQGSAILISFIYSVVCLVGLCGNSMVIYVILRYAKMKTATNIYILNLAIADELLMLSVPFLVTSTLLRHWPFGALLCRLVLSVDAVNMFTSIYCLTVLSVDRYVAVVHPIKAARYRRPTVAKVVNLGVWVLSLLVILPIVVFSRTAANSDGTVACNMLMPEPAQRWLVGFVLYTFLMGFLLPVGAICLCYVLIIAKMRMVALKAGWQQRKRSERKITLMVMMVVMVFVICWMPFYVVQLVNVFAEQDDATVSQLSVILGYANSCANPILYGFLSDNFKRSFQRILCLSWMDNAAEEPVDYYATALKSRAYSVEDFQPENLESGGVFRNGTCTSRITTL
Text: as §1

SSTR5 [6] = target: T2, SSTR5; assay: SSTR binding affinity (Table 1)
Text: as §1

[7] = tested on: NFPAs in MENX (homozygous mutant) rats; assay: Efficacy against endogenous NFPAs in MENX rat model; format: in vivo; settings: for number of Ki67-positive cells per 100.000 μm^2: end of treatment
Experimental: MRI was performed every 14 days and the tumor volume was normalized against the volume at day 0. Male and female rat tumors are shown separately. Data presented are the mean±SEM. #, not significant; *, p-value <0.05; **, p-value <0.001.
(A, B) Number of Ki67-positive cells per 100.000 μm2 in tumors of rats belonging to the 2 groups (ITF2984-treated and control) and both sexes. Shown is the mean±SEM. *, p-value <0.05; **, p-value <0.001. […]
At the end of the treatment, pituitary tissues were collected for ex vivo analyses. […] The difference in the number of Ki67-positive cells between placebo-and ITF2984-treated female rats is significant (p=0.031). […]

SSTR3-tGFP = SSTR3-tGFP (Homo sapiens, UniProt P32745); assay: Internalization of SSTR3 in U2OS transfected cells; format: cell-based; set-up: expressed in transfected cells; host or cells: U2OS
Sequence of SSTR3-tGFP (P32745 whole entry): as the sequence (P32745 whole entry) above
Text: (§2) HEK293 cells transfected with human SSTRs, and U20S cells transfected with human GFP-tagged receptors (SSTR2-tGFP, SSTR3-tGFP, SSTR5-tGFP).

SSTR3 [8] = target: T3, SSTR3; assay: SSTR3 phosphorylation in HEK293 transfected cells (phosphosite-specific antibodies); format: cell-based; set-up: expressed in transfected cells; settings: 10^−12 to 10^−5 M, 10 min at 37° C.
Experimental: The levels of phosphorylated SST3 receptor were then determined using the phosphosite-specific anti-pS337/pT341 or anti-pT348.
(§3) Finally, the SSTR5 pT333 phosphosite was only partially affected by all tested compounds, with Pasireotide showing the most pronounced effect (FIG. 9B, C).

IGF1 levels = IGF1 levels in dogs; format: in vivo, dog
SSTR5-tGFP = SSTR5-tGFP (Homo sapiens, UniProt P35346); assay: Internalization of SSTR5 in U2OS transfected cells; format: cell-based; set-up: expressed in transfected cells; host or cells: U2OS
Sequence of SSTR5-tGFP (P35346 whole entry): as the sequence (P35346 whole entry) above
Text: as §2

SSTR2 [9] = target: T1, SSTR2; assay: cell-based; set-up: expressed in transfected cells; host or cells: HEK293 co-expressing GIRK2-GFP
Text: as §4

[10] = tested on: pentobarbital-induced GH release; assay: pentobarbital-induced GH release in rats; format: in vivo, rat
SSTR5 [11] = target: T2, SSTR5; assay: SSTR5 phosphorylation in HEK293 transfected cells (anti-pT333); format: cell-based; set-up: expressed in transfected cells; settings: 10 min at 37° C.
Text: FIG. 9—Agonist-selective SSTR5 phosphorylation in HEK293 transfected cells. (A) Schematic representation of the human SSTR5 receptor indicating all potential phosphate acceptor site within the carboxyl-terminal tail. Epitope of the phosphosite-specific antibodies are marked (-P) . . . […] (C) Blots were subsequently stripped and reprobed with anti-HA antibody to confirm equal loading of the gels. Blots shown are representative of three independent experiments. The positions of molecular mass markers are indicated on the left (in kDa).
as §3

opioid receptors = assay: single dose binding assays on opioid receptors; settings: single dose 10^−5 M
NT-3 cell line spheroids = assay: Cytotoxic activity on NT-3 cell line spheroids; format: cell-based, human
Experimental: NT-3 well-differentiated pancreatic neuroendocrine (PanNET) cell line (32) is an in-vitro model for pancreatic tumours.
Said cells were cultured in RPMI 1640 Medium GlutaMAX™ with 10% FBS, 1% Penicillin/Streptomycin, 20ng/ml EGF (AF-100-15, Peprotech), 10 ng/ml FGF (100-18B, Peprotech).
3D spheroids were generated by seeding 2000 cells/well in a 96-well ULA plate (Corning). Four replicates for each condition were seeded.
The spheroid formation required 4 days before starting the treatment.
The treatment was repeated every 3 days by replacing 50% of the medium (to avoid spheroid removal) with new medium containing 2× desired drug concentration.
Spheroid morphology was monitored every day during the treatment and pictures were taken on day 0, 4, 7, 11, 14, 18. Day 0 corresponds to the first day of treatment. Pictures were taken from the same well every time point.

T1 sequence (P30874 whole entry): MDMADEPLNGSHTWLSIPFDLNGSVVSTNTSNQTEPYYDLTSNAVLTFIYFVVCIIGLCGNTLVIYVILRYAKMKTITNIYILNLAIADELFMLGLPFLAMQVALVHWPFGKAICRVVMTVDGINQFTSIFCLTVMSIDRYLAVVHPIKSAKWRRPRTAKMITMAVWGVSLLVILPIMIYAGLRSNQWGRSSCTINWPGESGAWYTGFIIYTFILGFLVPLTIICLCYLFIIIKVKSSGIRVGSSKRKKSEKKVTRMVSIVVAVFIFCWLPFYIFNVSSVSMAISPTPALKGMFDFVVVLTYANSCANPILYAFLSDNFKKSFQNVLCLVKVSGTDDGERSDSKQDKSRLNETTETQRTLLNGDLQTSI

## COc1cc2cccc(OC)c2cc1C[C@H]1NC(=O)[C@H](Cc2ccc(O)cc2)NC(=O)[C@@H]2C[C@@H](OC(=O)NCCN)CN2C(=O)[C@H](Cc2ccccc2)NC(=O)[C@H](Cc2ccc(OCc3ccccc3)cc2)NC(=O)[C@H](CCCCN)NC1=O [ITF2984, (3S,6R,9S,12S,15S,19R,20aS)-9-(4-aminobutyl)-15-benzyl-12-(4-(benzyloxy)benzyl)-6-((3,8-dimethoxynaphthalen-2-yl)methyl)-3-(4-hydroxybenzyl)-1,4,7,10,13,16-hexaoxoicosahydropyrrolo[1,2-a][1,4,7,10,13,16]hexaazacyclooctadecin-19-yl (2-aminoethyl)carbamate]
SSTR2 [1]
  IC50: nanomolar range
SSTR2 [1]; compared to octreotide
  affinity compared to octreotide: lower affinity
SSTR5 [2]
  EC50: 0.0951 ± 0.0152 µM
SSTR3 [3]
  EC50: 0.0107 ± 0.0017 µM
SSTR3 [3]; more potent than Octreotide or Pasireotide
  G-protein signaling potency at SSTR3 versus Octreotide or Pasireotide: about 5 times
SSTR3 [4]
  internalization of SSTR3: strong internalization
SSTR3 [5]
  IC50: nanomolar range
SSTR3 [5]; compared to octreotide
  affinity compared to octreotide: higher affinity
SSTR1
  affinity compared to octreotide: higher affinity
SSTR5 [6]
  IC50: nanomolar range
SSTR5 [6]; compared to octreotide
  affinity compared to octreotide: higher affinity
[7]; end of the treatment
  signs of discomfort: no signs of discomfort
[7]; female rats, 56 days, 12.5 mg/kg every 14 days
  tumor volume (MRI): only a slight increase in tumor volume
[7]; female rats
  number of Ki67-positive cells per 100.000 μm^2: 134
[7]; male rats
  change in Ki67-positive cells versus placebo: −33.5%
  number of Ki67-positive cells per 100.000 μm^2: 250
SSTR3-tGFP; 1 μM
  Mean of internalized fluorescence, SSTR3: 61.1 AU
  rank as SSTR3-tGFP internalization inducer: most potent inducer of receptor internalization
SSTR3-tGFP; 10 μM
  Mean of internalized fluorescence, SSTR3: 62.5 AU
SSTR3 [8]
  phosphorylation of SSTR3 (pS337/pT341, pT348): full phosphorylation
IGF1 levels
  IGF1 levels: decreased IGF1 levels
SSTR5-tGFP; 1 μM
  Mean of internalized fluorescence, SSTR5: 34.6 AU
SSTR5-tGFP; 10 μM
  Mean of internalized fluorescence, SSTR5: 42.0 AU
SSTR2 [9]
  EC50: 0.312 ± 0.0293 µM
[10]
  pentobarbital-induced GH release: inhibited pentobarbital-induced GH release
SSTR5 [11]
  phosphorylation of SSTR5 (pT333): partial phosphorylation
Opioid receptors
  replacement of agonists: fully replace agonists
NT-3 cell line spheroids; 2.56 μM, 18 days
  spheroid morphology at the highest concentration: completed destroyed
NT-3 cell line spheroids; starting from day 7
  concentration reducing the spheroid volume: ≥ 640 nM
